These results are taken from patent publication US4002530A, “6-Aminopenicillanic acid derivative” (Recherche et Industrie Therapeutiques (R.I.T.), priority 1975, dated 1977).

One data set relates to Corynebacterium xerosis. Kind of data set: broth dilution test, minimum inhibitory concentration. The format is cell-based. To be noted: about 20 hours at 35° C, tested as monoammonium salt.
In the next data set the test system is Aerobacter aerogenes. The description is as above. The format is cell-based. To be noted: Klebsiella aerogenes, 20 h, read-out: Minimum Inhibitory concentration.
The test system of data set [1] is Staphylococcal preparation of β-lactamase. Kind of data set: destruction by Staphylococcal preparation of β-lactamase (Penase Leo). The format is biochemical.
Another data set relates to Alcaligenes faecalis. Kind of data set: broth dilution test, minimum inhibitory concentration. To be noted: about 20 hours at 35° C, tested as monoammonium salt. The format is cell-based. Background: In broth dilution the organism is exposed to a series of concentrations in liquid medium.
For a further data set, the system named is Proteus mirabilis. Described as above. The format is cell-based. To be noted: 20 h, read-out: Minimum Inhibitory concentration.
In data set [2] the test system is Staphylococcus aureus Pen.resist. The description is as above. The format is cell-based. The note with it: penicillin resistant, about 20 hours at 35° C, tested as monoammonium salt.
A further data set has as its system Salmonella typhi. The data set is described as above. The format is cell-based. To be noted: Salmonella enterica, 20 h, read-out: Minimum Inhibitory concentration.
A further data set relates to Salmonella paratyphi. The data set is described as above. The format is cell-based. To be noted: Salmonella enterica, 20 h, read-out: Minimum Inhibitory concentration.
A further data set deals with Pseudomonas aeruginosa. The data set is described as above. The format is cell-based. The note with it: about 20 hours at 35° C, tested as monoammonium salt.
The next data set concerns Klebsiella pneumoniae. The description is as above. The format is cell-based. The note with it: about 20 hours at 35° C, tested as monoammonium salt.
The subject of the next data set is Proteus morganii. The data set is described as above. The format is cell-based. The note with it: Morganella morganii, about 20 hours at 35° C, tested as monoammonium salt.
A further data set in a line: physchem. The format is physicochemical. The text has this: Antibiotic RIT D-2214 can be colorimetrically assayed by the classical hydroxylamine method of penicillin assay. […] Recoveries were estimated according to the hydroxylamine assay method.

Values after ≈ are worked out from the molar mass of the structure shown.

For orientation: half-life means the time needed for the level to fall by half in the phase considered. A lower half-life goes with fast loss. Regarding `CC1(C)S[C@@H]2[C@H](NC(=O)CSC[C@@H](N)C(=O)O)C(=O)N2[C@H]1C(=O)O` [RIT D-2214, 6-(D)-{[(2-amino-2-carboxy)-ethylthio]-acetamido}-penicillanic acid], the MIC in the data set on Corynebacterium xerosis was less than 0.02 µg/mL; with Aerobacter aerogenes it was 1.25 µg/mL (≈ 3.31 µM); in the data set on Alcaligenes faecalis, 1.6 µg/mL; with Proteus mirabilis, 1.25 µg/mL (≈ 3.31 µM); in data set [2], 80 µg/mL; in the data set with Salmonella typhi, 0.6 µg/mL (≈ 1.59 µM). Further, the MIC came to 1.25 µg/mL (≈ 3.31 µM) with Salmonella paratyphi, 80 µg/mL in the data set with Pseudomonas aeruginosa, 80 µg/mL in the data set on Klebsiella pneumoniae and 40 µg/mL in the data set on Proteus morganii. The “destruction by β-lactamase” value in data set [1] is “rapidly destroyed”. Moreover, the “stability under acid conditions” value in the data set “physchem” is on record as “relatively stable under acid conditions”. The same compound yielded a half-life in the data set “physchem” (reconstituted gastric juice, pH 1.3) of 25 min.
